Compound O=P1(O)OCC2(CO1)COP(=O)(O)OC2 (stereo not drawn) has a solubility (mole fraction) (in 1,4-dioxane, 293.16 K) of 0.00025, a solubility (mole fraction) (in 1,4-dioxane, 298.17 K) of 0.00028 and a solubility (mole fraction) (in 1,4-dioxane, 303.16 K) of 0.00031. The solubility (mole fraction) (in 1,4-dioxane, 308.17 K) was 0.00035, the solubility (mole fraction) (in 1,4-dioxane, 313.16 K) was 0.0004 and the solubility (mole fraction) (in 1,4-dioxane, 318.18 K) was 0.00045. For the same compound, the solubility (mole fraction) (in 1,4-dioxane, 323.16 K) was 0.0005, the solubility (mole fraction) (in 1,4-dioxane, 328.16 K) was 0.00055 and the solubility (mole fraction) (in 1,4-dioxane, 333.17 K) was 0.0006. For the same compound, the solubility (mole fraction) (in 1,4-dioxane, 338.15 K) was 0.00066, the solubility (mole fraction) (in 2-butanone, 293.16 K) was 0.0006 and the solubility (mole fraction) (in 2-butanone, 298.17 K) was 0.0007. It also gave a solubility (mole fraction) (in 2-butanone, 303.16 K) of 0.0008, a solubility (mole fraction) (in 2-butanone, 308.17 K) of 0.001 and a solubility (mole fraction) (in 2-butanone, 313.16 K) of 0.0011. The solubility (mole fraction) (in 2-butanone, 318.18 K) was 0.0013, the solubility (mole fraction) (in 2-butanone, 323.16 K) was 0.0015 and the solubility (mole fraction) (in 2-butanone, 328.16 K) was 0.0016. It also gave a solubility (mole fraction) (in 2-butanone, 333.17 K) of 0.0018, a solubility (mole fraction) (in acetic acid, 293.16 K) of 0.00017 and a solubility (mole fraction) (in acetic acid, 298.17 K) of 0.00022. The solubility (mole fraction) (in acetic acid, 303.16 K) was 0.00026, the solubility (mole fraction) (in acetic acid, 308.17 K) was 0.00032 and the solubility (mole fraction) (in acetic acid, 313.16 K) was 0.0004. The solubility (mole fraction) (in acetic acid, 318.18 K) was 0.00048, the solubility (mole fraction) (in acetic acid, 323.16 K) was 0.00057 and the solubility (mole fraction) (in acetic acid, 328.16 K) was 0.00067. The solubility (mole fraction) (in acetic acid, 333.17 K) was 0.00078, the solubility (mole fraction) (in acetic acid, 338.15 K) was 0.00092 and the solubility (mole fraction) (in acetone, 295.75 K) was 0.004. The solubility (mole fraction) (in acetone, 297.55 K) was 0.0041, the solubility (mole fraction) (in acetone, 299.85 K) was 0.0043 and the solubility (mole fraction) (in acetone, 301.45 K) was 0.0044. It also gave a solubility (mole fraction) (in acetone, 303.15 K) of 0.0045, a solubility (mole fraction) (in acetone, 305.35 K) of 0.0047 and a solubility (mole fraction) (in acetone, 307.95 K) of 0.0049. It also gave a solubility (mole fraction) (in acetone, 309.15 K) of 0.005, a solubility (mole fraction) (in acetone, 313.35 K) of 0.0053 and a solubility (mole fraction) (in acetone, 317.15 K) of 0.0057. The solubility (mole fraction) (in acetone, 319.15 K) was 0.0058, the solubility (mole fraction) (in acetonitrile, 309.35 K) was 0.0006 and the solubility (mole fraction) (in acetonitrile, 311.25 K) was 0.0007. The solubility (mole fraction) (in acetonitrile, 313.25 K) was 0.0009, the solubility (mole fraction) (in acetonitrile, 315.45 K) was 0.001 and the solubility (mole fraction) (in acetonitrile, 317.35 K) was 0.0012. It also gave a solubility (mole fraction) (in acetonitrile, 319.55 K) of 0.0015, a solubility (mole fraction) (in acetonitrile, 321.55 K) of 0.0017 and a solubility (mole fraction) (in acetonitrile, 323.25 K) of 0.002. It also gave a solubility (mole fraction) (in acetonitrile, 325.75 K) of 0.0025, a solubility (mole fraction) (in acetonitrile, 327.45 K) of 0.0028 and a solubility (mole fraction) (in acetonitrile, 329.45 K) of 0.0032. The solubility (mole fraction) (in acetonitrile, 331.55 K) was 0.0038, the solubility (mole fraction) (in benzene, 293.16 K) was 0.00031 and the solubility (mole fraction) (in benzene, 298.17 K) was 0.00038. The solubility (mole fraction) (in benzene, 303.16 K) was 0.00047, the solubility (mole fraction) (in benzene, 308.17 K) was 0.00059 and the solubility (mole fraction) (in benzene, 313.16 K) was 0.0007. The solubility (mole fraction) (in benzene, 318.18 K) was 0.00088, the solubility (mole fraction) (in benzene, 323.16 K) was 0.00103 and the solubility (mole fraction) (in benzene, 328.16 K) was 0.00123. For the same compound, the solubility (mole fraction) (in benzene, 333.17 K) was 0.00146, the solubility (mole fraction) (in benzene, 338.15 K) was 0.00176 and the solubility (mole fraction) (in chloroform, 293.16 K) was 0.00046. It also gave a solubility (mole fraction) (in chloroform, 298.17 K) of 0.00054, a solubility (mole fraction) (in chloroform, 303.16 K) of 0.00067 and a solubility (mole fraction) (in chloroform, 308.17 K) of 0.00081. It also gave a solubility (mole fraction) (in chloroform, 313.16 K) of 0.00094, a solubility (mole fraction) (in chloroform, 318.18 K) of 0.00114 and a solubility (mole fraction) (in chloroform, 323.16 K) of 0.00137. The solubility (mole fraction) (in chloroform, 328.16 K) was 0.00163, the solubility (mole fraction) (in chloroform, 333.17 K) was 0.00192 and the solubility (mole fraction) (in chloroform, 338.15 K) was 0.00222. For the same compound, the solubility (mole fraction) (in cyclohexane, 293.16 K) was 0.00016, the solubility (mole fraction) (in cyclohexane, 298.17 K) was 0.00019 and the solubility (mole fraction) (in cyclohexane, 303.16 K) was 0.00022. The solubility (mole fraction) (in cyclohexane, 308.17 K) was 0.00025, the solubility (mole fraction) (in cyclohexane, 313.16 K) was 0.00028 and the solubility (mole fraction) (in cyclohexane, 318.18 K) was 0.00032. The solubility (mole fraction) (in cyclohexane, 323.16 K) was 0.00037, the solubility (mole fraction) (in cyclohexane, 328.16 K) was 0.00041 and the solubility (mole fraction) (in cyclohexane, 333.15 K) was 0.00046. For the same compound, the solubility (mole fraction) (in cyclohexane, 338.15 K) was 0.00052, the solubility (mole fraction) (in dichloromethane, 291.16 K) was 0.00027 and the solubility (mole fraction) (in dichloromethane, 295.18 K) was 0.00032. The solubility (mole fraction) (in dichloromethane, 299.16 K) was 0.00037, the solubility (mole fraction) (in dichloromethane, 303.19 K) was 0.00045 and the solubility (mole fraction) (in dichloromethane, 305.2 K) was 0.00048. The solubility (mole fraction) (in dichloromethane, 309.15 K) was 0.00056, the solubility (mole fraction) (in diethyl ether, 291.16 K) was 0.00053 and the solubility (mole fraction) (in diethyl ether, 295.18 K) was 0.00073. For the same compound, the solubility (mole fraction) (in diethyl ether, 299.16 K) was 0.00096, the solubility (mole fraction) (in diethyl ether, 303.19 K) was 0.00124 and the solubility (mole fraction) (in diethyl ether, 305.2 K) was 0.0014. For the same compound, the solubility (mole fraction) (in ethyl acetate, 293.16 K) was 0.00078, the solubility (mole fraction) (in ethyl acetate, 298.17 K) was 0.00092 and the solubility (mole fraction) (in ethyl acetate, 303.16 K) was 0.00109. For the same compound, the solubility (mole fraction) (in ethyl acetate, 308.17 K) was 0.00129, the solubility (mole fraction) (in ethyl acetate, 313.16 K) was 0.00152 and the solubility (mole fraction) (in ethyl acetate, 318.18 K) was 0.00177. It also gave a solubility (mole fraction) (in ethyl acetate, 323.16 K) of 0.00204, a solubility (mole fraction) (in ethyl acetate, 328.16 K) of 0.00229 and a solubility (mole fraction) (in ethyl acetate, 333.17 K) of 0.00271. It also gave a solubility (mole fraction) (in ethyl acetate, 338.15 K) of 0.00315, a solubility (mole fraction) (in toluene, 293.16 K) of 0.00046 and a solubility (mole fraction) (in toluene, 298.17 K) of 0.00059. It also gave a solubility (mole fraction) (in toluene, 303.16 K) of 0.00071, a solubility (mole fraction) (in toluene, 308.17 K) of 0.00086 and a solubility (mole fraction) (in toluene, 313.16 K) of 0.00104. The solubility (mole fraction) (in toluene, 318.18 K) was 0.00122, the solubility (mole fraction) (in toluene, 323.16 K) was 0.00146 and the solubility (mole fraction) (in toluene, 328.16 K) was 0.00176. For the same compound, the solubility (mole fraction) (in toluene, 333.17 K) was 0.00209 and the solubility (mole fraction) (in toluene, 338.15 K) was 0.00248.

Reference: BigSolDB 2.1
